Reference: paper PMC8119466, “A screen of FDA-approved drugs identifies inhibitors of protein tyrosine phosphatase 4A3 (PTP4A3 or PRL-3)” (Scientific Reports, 2021)
Structures can show the parent of a compound that is named as a salt. Where two headings read alike, the source gives them in different places.

Experiments:
Assay type in all cases: biochemical
recombinant PRL-1 = target: T1, recombinant PRL-1 (Homo sapiens, UniProt Q93096); experiment: In vitro phosphatase assay (DiFMUP hydrolysis), PRL-1; also: test concentration or dose not given here
T1 construct: 6xHis (N, cleaved yes); made in house; host or cells: E. coli One Shot BL21 Star
T1 sequence (Q93096 1-173): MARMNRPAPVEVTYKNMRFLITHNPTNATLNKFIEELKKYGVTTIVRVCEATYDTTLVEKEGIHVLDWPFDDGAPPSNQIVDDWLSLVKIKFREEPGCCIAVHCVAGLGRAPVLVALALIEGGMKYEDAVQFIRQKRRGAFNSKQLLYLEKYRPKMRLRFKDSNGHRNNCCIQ

recombinant PRL-2 = target: T2, recombinant PRL-2 (Homo sapiens, UniProt Q12974); experiment: In vitro phosphatase assay (DiFMUP hydrolysis), PRL-2;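 also: PRL-2 activity read as DiFMUP hydrolysis after 20 min at room temperature with drug, enzyme first pre-reduced at 4 °C for 20 min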
T2 construct: 6xHis (N, cleaved yes); made in house; host or cells: E. coli One Shot BL21 Star
T2 sequence (Q12974 1-167): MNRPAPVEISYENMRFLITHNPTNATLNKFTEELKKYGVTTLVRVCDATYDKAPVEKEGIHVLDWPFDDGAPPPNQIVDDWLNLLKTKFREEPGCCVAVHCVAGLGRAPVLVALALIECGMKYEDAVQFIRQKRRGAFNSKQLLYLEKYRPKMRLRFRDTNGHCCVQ

recombinant PRL-3 = target: T3, recombinant PRL-3 (Homo sapiens, UniProt O75365); experiment: In vitro phosphatase assay (DiFMUP hydrolysis), PRL-3; also: test concentration or dose not given here
T3 construct: 6xHis (N, cleaved yes); made in house; host or cells: E. coli One Shot BL21 Star
T3 sequence (O75365 whole entry): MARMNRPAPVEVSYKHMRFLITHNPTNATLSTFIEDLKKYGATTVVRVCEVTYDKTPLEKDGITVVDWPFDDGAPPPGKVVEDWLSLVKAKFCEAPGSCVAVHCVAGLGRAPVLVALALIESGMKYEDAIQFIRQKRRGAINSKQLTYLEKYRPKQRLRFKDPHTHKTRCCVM

[1] = FDA-approved drug screen, compared to DMSO

Row | SMILES | % Phosphatase Activity (compared to DMSO) PRL-1 (recombinant PRL-1; [1]) [%] | % Phosphatase Activity (compared to DMSO) PRL-2 (recombinant PRL-2; [1]) [%] | % Phosphatase Activity (compared to DMSO) PRL-3 (recombinant PRL-3; [1]) [%] | % Phosphatase Activity (compared to DMSO) PRL-1 (recombinant PRL-1) [%] | % Phosphatase Activity (compared to DMSO) PRL-2 (recombinant PRL-2) [%] | % Phosphatase Activity (compared to DMSO) PRL-3 (recombinant PRL-3) [%]
1 | N=C(N)NC(=O)c1nc(Cl)c(N)nc1N [Amiloride hydrochloride dihydrate] | 254 | 219 | 220 | – | – | –
2 | CCC1(c2ccc(N)cc2)CCC(=O)NC1=O (stereo not drawn) [Aminoglutethimide] | 94 | 107 | 77 | – | – | –
3 | Cl.N=C(N)NN [Aminoguanidine (hydrochloride)] | 100 | 91 | 87 | – | – | –
4 | Cn1c(=O)c2[nH]cnc2n(C)c1=O [Aminophylline] | 97 | 96 | 62 | – | – | –
5 | Nc1nccs1 [Aminothiazole] | 108 | 103 | 79 | – | – | –
6 | CCCCc1oc2ccccc2c1C(=O)c1cc(I)c(OCCN(CC)CC)c(I)c1 [Amiodarone HCl] | – | – | – | 97 | 117 | 102
7 | CCN1CCCC1CNC(=O)c1cc(S(=O)(=O)CC)c(N)cc1OC (stereo not drawn) [Amisulpride] | 94 | 89 | 74 | – | – | –
8 | CN(C)CCC=C1c2ccccc2CCc2ccccc21 [Amitriptyline HCl] | 92 | 101 | 89 | – | – | –
9 | CCOC(=O)C1=C(COCCN)NC(C)=C(C(=O)OC)C1c1ccccc1Cl.O=S(=O)(O)c1ccccc1 (stereo not drawn) [Amlodipine besylate (Norvasc)] | 152 | 174 | 168 | – | – | –
10 | CCOC(=O)C1=C(COCCN)NC(C)=C(C(=O)OC)C1c1ccccc1Cl (stereo not drawn) [Amlodipine] | 145 | 157 | 149 | – | – | –
11 | CCN(CC)Cc1cc(Nc2ccnc3cc(Cl)ccc23)ccc1O.Cl.Cl.O.O [Amodiaquin (dihydrochloride dihydrate)] | 84 | 74 | 77 | – | – | –
12 | CN(C)CCN1C(=O)c2cccc3cc(N)cc(c23)C1=O [Amonafide] | 89 | 98 | 72 | – | – | –
13 | CCC(C)(C)c1ccc(CC(C)CN2C[C@@H](C)O[C@@H](C)C2)cc1 (stereo partly drawn) [Amorolfine HCl] | 102 | 94 | 78 | – | – | –
14 | Clc1ccc2c(c1)C(N1CCNCC1)=Nc1ccccc1O2 [Amoxapine] | 109 | 118 | 88 | – | – | –
15 | CC1(C)S[C@@H]2[C@H](NC(=O)[C@H](N)c3ccc(O)cc3)C(=O)N2[C@H]1C(=O)[O-].[Na+] [Amoxicillin Sodium] | – | – | – | 97 | 114 | 80
16 | C[C@@H]1[C@H](O)[C@@H](C)/C=C/C=C/C=C/C=C/C=C/C=C/C=C/[C@H](O[C@@H]2O[C@H](C)[C@@H](O)[C@H](N)[C@@H]2O)C[C@@H]2O[C@](O)(C[C@@H](O)C[C@@H](O)[C@H](O)CC[C@@H](O)C[C@@H](O)CC(=O)O[C@H]1C)C[C@H](O)[C@H]2C(=O)O [Amphotericin B] | 102 | 92 | 80 | – | – | –
17 | CC1(C)S[C@@H]2[C@H](NC(=O)[C@H](N)c3ccccc3)C(=O)N2[C@H]1C(=O)O [Ampicillin Trihydrate] | 92 | 106 | 72 | – | – | –
18 | CC1(C)S[C@@H]2[C@H](NC(=O)[C@H](N)c3ccccc3)C(=O)N2[C@H]1C(=O)O [Ampicillin sodium] | 120 | 127 | 92 | – | – | –
19 | CCOC(=O)OC(C)OC1=C(C(=O)Nc2ccccn2)N(C)S(=O)(=O)c2ccccc21 (stereo not drawn) [Ampiroxicam] | 114 | 114 | 88 | – | – | –
20 | CC(C)CN(C[C@@H](O)[C@H](Cc1ccccc1)NC(=O)O[C@H]1CCOC1)S(=O)(=O)c1ccc(N)cc1 [Amprenavir] | 96 | 81 | 77 | – | – | –
